Results: PubChem BioAssay (NCI)
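Abbreviation: GI50, concentration required for 50% inhibition of growth. TGI denotes the concentration required for complete inhibition of growth.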

Key:
Assay in all cases: growth of human tumour cells (NCI), 384-well format
SF-539 CNS = tested on: SF-539 CNS
SF-295 CNS = tested on: SF-295 CNS
HOP-92 NSCLC = tested on: HOP-92 NSCLC
OVCAR-3 ovarian = tested on: OVCAR-3 ovarian
UACC-257 melanoma = tested on: UACC-257 melanoma
MDA-MB-435 melanoma = tested on: MDA-MB-435 melanoma
SK-MEL-5 melanoma = tested on: SK-MEL-5 melanoma
KM12 colon = tested on: KM12 colon
SW-620 colon = tested on: SW-620 colon
MOLT-4 leukemia = tested on: MOLT-4 leukemia
NCI-H23 lung = tested on: NCI-H23 lung
SN12C renal = tested on: SN12C renal
HCT-15 colon = tested on: HCT-15 colon
RXF 393 renal = tested on: RXF 393 renal
SK-MEL-28 melanoma = tested on: SK-MEL-28 melanoma
COLO 205 colon = tested on: COLO 205 colon
T-47D breast = tested on: T-47D breast
CCRF-CEM leukemia = tested on: CCRF-CEM leukemia
MDA-MB-468 breast = tested on: MDA-MB-468 breast
UACC-62 melanoma = tested on: UACC-62 melanoma
SR leukemia = tested on: SR leukemia
786-0 renal = tested on: 786-0 renal
UO-31 renal = tested on: UO-31 renal
IGROV1 ovarian = tested on: IGROV1 ovarian
M14 melanoma = tested on: M14 melanoma
CAKI-1 renal = tested on: CAKI-1 renal
SK-OV-3 ovarian = tested on: SK-OV-3 ovarian
TK-10 renal = tested on: TK-10 renal
NCI-H460 NSCLC = tested on: NCI-H460 NSCLC

Q: For `COc1cc(Nc2c(C#N)cnc3cc(OCCCN4CCN(C)CC4)c(OC)cc23)c(Cl)cc1Cl`, which GI50 (SF-539 CNS) is on record?
A: 1550 nM

Q: And the TGI (SF-539 CNS)?
A: 2990 nM

Q: What about the GI50 (SF-295 CNS) of the same compound?
A: 2680 nM

Q: What about the TGI (SF-295 CNS) of the same compound?
A: 5770 nM

Q: And the GI50 (HOP-92 NSCLC)?
A: 1100 nM

Q: What about the TGI (HOP-92 NSCLC) of the same compound?
A: 2790 nM

Q: And the GI50 (OVCAR-3 ovarian)?
A: 1490 nM

Q: And the TGI (OVCAR-3 ovarian)?
A: 5020 nM

Q: And the GI50 (UACC-257 melanoma)?
A: 1610 nM

Q: And the TGI (UACC-257 melanoma)?
A: 2980 nM

Q: And the GI50 (MDA-MB-435 melanoma)?
A: 2120 nM

Q: And the TGI (MDA-MB-435 melanoma)?
A: 5430 nM

Q: And the GI50 (SK-MEL-5 melanoma)?
A: 1240 nM

Q: What about the TGI (SK-MEL-5 melanoma) of the same compound?
A: 2540 nM

Q: What about the GI50 (KM12 colon) of the same compound?
A: 448 nM

Q: What about the TGI (KM12 colon) of the same compound?
A: 4030 nM

Q: What about the GI50 (SW-620 colon) of the same compound?
A: 2620 nM

Q: And the TGI (SW-620 colon)?
A: 5860 nM

Q: And the GI50 (MOLT-4 leukemia)?
A: 612 nM

Q: And the TGI (MOLT-4 leukemia)?
A: 2000 nM

Q: And the GI50 (NCI-H23 lung)?
A: 1690 nM

Q: What about the TGI (NCI-H23 lung) of the same compound?
A: 4260 nM

Q: What about the GI50 (SN12C renal) of the same compound?
A: 301 nM

Q: And the TGI (SN12C renal)?
A: 4140 nM

Q: And the GI50 (HCT-15 colon)?
A: 1140 nM

Q: What about the TGI (HCT-15 colon) of the same compound?
A: 3740 nM

Q: And the GI50 (RXF 393 renal)?
A: 368 nM

Q: What about the TGI (RXF 393 renal) of the same compound?
A: 1460 nM

Q: And the GI50 (SK-MEL-28 melanoma)?
A: 1560 nM

Q: And the TGI (SK-MEL-28 melanoma)?
A: 2980 nM

Q: And the GI50 (COLO 205 colon)?
A: 2010 nM

Q: What about the TGI (COLO 205 colon) of the same compound?
A: 5450 nM

Q: And the GI50 (T-47D breast)?
A: 1340 nM

Q: And the TGI (T-47D breast)?
A: 5410 nM

Q: And the GI50 (CCRF-CEM leukemia)?
A: 2040 nM

Q: What about the TGI (CCRF-CEM leukemia) of the same compound?
A: 3640 nM

Q: And the GI50 (MDA-MB-468 breast)?
A: 998 nM

Q: And the TGI (MDA-MB-468 breast)?
A: 2660 nM

Q: And the GI50 (UACC-62 melanoma)?
A: 1440 nM

Q: What about the TGI (UACC-62 melanoma) of the same compound?
A: 2880 nM

Q: And the GI50 (SR leukemia)?
A: 1370 nM

Q: What about the TGI (SR leukemia) of the same compound?
A: 2680 nM

Q: What about the GI50 (786-0 renal) of the same compound?
A: 764 nM

Q: What about the TGI (786-0 renal) of the same compound?
A: 2580 nM

Q: And the GI50 (UO-31 renal)?
A: 476 nM

Q: What about the TGI (UO-31 renal) of the same compound?
A: 2560 nM

Q: And the GI50 (IGROV1 ovarian)?
A: 146 nM

Q: And the TGI (IGROV1 ovarian)?
A: 899 nM

Q: And the GI50 (M14 melanoma)?
A: 1160 nM

Q: What about the TGI (M14 melanoma) of the same compound?
A: 2490 nM

Q: And the GI50 (CAKI-1 renal)?
A: 431 nM

Q: And the TGI (CAKI-1 renal)?
A: 2090 nM

Q: What about the GI50 (SK-OV-3 ovarian) of the same compound?
A: 416 nM

Q: And the TGI (SK-OV-3 ovarian)?
A: 4210 nM

Q: And the GI50 (TK-10 renal)?
A: 584 nM

Q: What about the TGI (TK-10 renal) of the same compound?
A: 3520 nM

Q: What about the GI50 (NCI-H460 NSCLC) of the same compound?
A: 1620 nM

Q: And the TGI (NCI-H460 NSCLC)?
A: 5140 nM
